Assay results published in ChEMBL document CHEMBL5244248, “A novel long-acting oxyntomodulin analogue eliminates diabetes and obesity in mice” (Eur J Med Chem, 2020).
Square brackets hold non-standard residues; d marks the D form. Peptide text beside a SMILES is read from it. Aib = CC(C)(N)C(=O)O

Key:
[1] = system: INS1; assay: Anti-apoptotic activity in rat INS1 cells assessed as reduction in cytokine-induced cell apoptosis at 100 nM treated for 1 hr prior to TNF-alpha and IL-1beta challenge; format: functional
[2] = molecular target: T1, Glucagon-like peptide 1 receptor (Mus musculus, UniProt O35659); assay: Agonist activity at mouse GLP-1R expressed in CHO cells assessed as increase in cAMP accumulation; format: cell-based
T1 sequence (O35659 whole entry): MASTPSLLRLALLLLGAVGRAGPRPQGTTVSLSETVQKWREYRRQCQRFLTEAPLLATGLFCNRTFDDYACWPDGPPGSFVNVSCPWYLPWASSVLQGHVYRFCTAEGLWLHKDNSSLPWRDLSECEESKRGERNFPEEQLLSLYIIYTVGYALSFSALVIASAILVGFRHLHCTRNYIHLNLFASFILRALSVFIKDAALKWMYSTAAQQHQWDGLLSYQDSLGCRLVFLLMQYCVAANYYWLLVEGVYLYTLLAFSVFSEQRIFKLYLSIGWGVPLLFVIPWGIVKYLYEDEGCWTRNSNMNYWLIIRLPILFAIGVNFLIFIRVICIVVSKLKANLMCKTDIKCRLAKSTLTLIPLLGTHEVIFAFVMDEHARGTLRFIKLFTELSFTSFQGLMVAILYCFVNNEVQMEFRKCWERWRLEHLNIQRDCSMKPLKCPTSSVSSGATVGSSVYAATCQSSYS

[3] = molecular target: Glucagon receptor (Mus musculus, UniProt Q61606); assay: Agonist activity at mouse GCGR expressed in CHO cells assessed as increase in cAMP accumulation; format: cell-based
Glucagon receptor, sequence (Q61606 whole entry): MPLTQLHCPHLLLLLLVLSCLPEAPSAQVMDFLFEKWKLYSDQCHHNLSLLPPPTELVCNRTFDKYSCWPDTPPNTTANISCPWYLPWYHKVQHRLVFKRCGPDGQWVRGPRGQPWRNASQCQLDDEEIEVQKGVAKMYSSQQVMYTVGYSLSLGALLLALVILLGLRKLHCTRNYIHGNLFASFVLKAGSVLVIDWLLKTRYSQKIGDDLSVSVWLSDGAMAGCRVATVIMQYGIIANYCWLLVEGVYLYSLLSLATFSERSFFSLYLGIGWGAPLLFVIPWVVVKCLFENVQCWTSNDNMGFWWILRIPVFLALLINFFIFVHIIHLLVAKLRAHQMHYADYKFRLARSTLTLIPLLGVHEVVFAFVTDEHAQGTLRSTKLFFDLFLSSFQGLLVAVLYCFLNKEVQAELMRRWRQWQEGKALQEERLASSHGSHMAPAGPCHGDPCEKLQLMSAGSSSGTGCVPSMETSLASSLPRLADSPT

EC50 [2] [nM] | EC50 [3] [nM] | SMILES | inhibition at 0.1 µM [1] [%]
 |  | CC[C@H](C)[C@H](NC(=O)[C@H](Cc1ccccc1)NC(=O)[C@H](CCC(=O)O)NC(=O)[C@H](CCCCN)NC(=O)[C@H](C)NC(=O)[C@H](C)NC(=O)[C@H](CCC(N)=O)NC(=O)CNC(=O)[C@H](CCC(=O)O)NC(=O)[C@H](CC(C)C)NC(=O)[C@H](Cc1ccc(O)cc1)NC(=O)[C@H](CO)NC(=O)[C@H](CO)NC(=O)[C@@H](NC(=O)[C@H](CC(=O)O)NC(=O)[C@H](CO)NC(=O)[C@@H](NC(=O)[C@H](Cc1ccccc1)NC(=O)[C@@H](NC(=O)CNC(=O)[C@H](CCC(=O)O)NC(=O)[C@H](C)NC(=O)[C@@H](N)Cc1cnc[nH]1)[C@@H](C)O)[C@@H](C)O)C(C)C)C(=O)N[C@@H](C)C(=O)N[C@@H](Cc1c[nH]c2ccccc12)C(=O)N[C@@H](CC(C)C)C(=O)N[C@H](C(=O)N[C@@H](CCCCN)C(=O)NCC(=O)N[C@@H](CCCNC(=N)N)C(=O)O)C(C)C | 40.4
1.36 | 1.44 | CC[C@H](C)[C@H](NC(=O)[C@H](CC(N)=O)NC(=O)[C@H](CC(N)=O)NC(=O)[C@H](CCCNC(=N)N)NC(=O)[C@H](CC(N)=O)NC(=O)[C@H](CCCNC(=N)N)NC(=O)[C@H](CCCCN)NC(=O)[C@@H](NC(=O)[C@H](CC(N)=O)NC(=O)[C@H](CCSC)NC(=O)[C@H](CC(C)C)NC(=O)[C@H](Cc1c[nH]c2ccccc12)NC(=O)[C@H](CCC(=O)O)NC(=O)[C@@H](NC(=O)[C@H](Cc1ccccc1)NC(=O)[C@H](CCC(=O)O)NC(=O)[C@H](CCCCN)NC(=O)[C@H](C)NC(=O)[C@H](CCCNC(=N)N)NC(=O)[C@H](CCCCN)NC(=O)[C@H](CCC(=O)O)NC(=O)[C@H](CC(=O)O)NC(=O)[C@H](CC(C)C)NC(=O)[C@H](Cc1ccc(O)cc1)NC(=O)[C@H](CCCCN)NC(=O)[C@H](CO)NC(=O)[C@H](Cc1ccc(O)cc1)NC(=O)[C@H](CC(=O)O)NC(=O)[C@H](CO)NC(=O)[C@@H](NC(=O)[C@H](Cc1ccccc1)NC(=O)[C@@H](NC(=O)CNC(=O)[C@H](CCC(N)=O)NC(=O)C(C)(C)NC(=O)[C@@H](N)Cc1c[nH]cn1)[C@@H](C)O)[C@@H](C)O)C(C)C)[C@@H](C)O)C(=O)N[C@@H](C)C(N)=O (H-H[Aib]QGTFTSDYSKYLDEKRAKEFVEWLMNTKRNRNNIA-NH2) | 
0.61 | 0.94 | CC[C@H](C)[C@H](NC(=O)[C@H](CC(N)=O)NC(=O)[C@H](CC(N)=O)NC(=O)[C@H](CCCNC(=N)N)NC(=O)[C@H](CC(N)=O)NC(=O)[C@H](CCCNC(=N)N)NC(=O)[C@H](CCCCN)NC(=O)[C@@H](NC(=O)[C@H](CC(N)=O)NC(=O)[C@H](CCSC)NC(=O)[C@H](CC(C)C)NC(=O)[C@H](Cc1c[nH]c2ccccc12)NC(=O)[C@H](CCC(N)=O)NC(=O)[C@@H](NC(=O)[C@H](Cc1ccccc1)NC(=O)[C@H](CCC(=O)O)NC(=O)[C@H](CCCCN)NC(=O)[C@H](C)NC(=O)[C@H](CCCNC(=N)N)NC(=O)[C@H](CCCCN)NC(=O)[C@H](CCC(=O)O)NC(=O)[C@H](CC(=O)O)NC(=O)[C@H](CC(C)C)NC(=O)[C@H](Cc1ccc(O)cc1)NC(=O)[C@H](CCCCN)NC(=O)[C@H](CO)NC(=O)[C@H](Cc1ccc(O)cc1)NC(=O)[C@H](CC(=O)O)NC(=O)[C@H](CO)NC(=O)[C@@H](NC(=O)[C@H](Cc1ccccc1)NC(=O)[C@@H](NC(=O)CNC(=O)[C@H](CCC(N)=O)NC(=O)C(C)(C)NC(=O)[C@@H](N)Cc1c[nH]cn1)[C@@H](C)O)[C@@H](C)O)C(C)C)[C@@H](C)O)C(=O)N[C@@H](C)C(N)=O | 
